# Results as given in article PMC11151065, “Boosted Enzyme Activity via Encapsulation within Metal–Organic Frameworks with Pores Matching Enzyme Size and Shape” (Advanced Science, 2024).
# Target: T1, cytochrome c (Cyt c) (Bos taurus, UniProt P62894)
# T1 construct: gene CYCS; native holoprotein from cow heart (Sigma-Aldrich), free in solution
# Assay: absorbance of ABTS radical cation at […] nm
# Type: biochemical
# Settings: free enzyme; peroxidase activity with H2O2 co-substrate; room temperature
# T1 sequence (P62894 2-105): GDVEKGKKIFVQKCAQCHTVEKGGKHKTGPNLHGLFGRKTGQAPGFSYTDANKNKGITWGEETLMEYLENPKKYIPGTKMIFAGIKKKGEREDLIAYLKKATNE
smiles,measurement,value
"CCn1c(=NN=c2sc3cc(S(=O)(=O)O)ccc3n2CC)sc2cc(S(=O)(=O)O)ccc21 [ABTS, 2,2′‐azino‐bis (3‐ethylbenzothiazoline‐6‐sulfonic acid)]",absorbance of ABTS radical cation at 415 nm,peroxidase catalytic properties of Cyt c were utilized to oxidize ABTS to ABTS▪^+
